The results in this text go back to patent US8778984B2, “Aldosterone synthase inhibitor” (Eli Lilly and Company, priority 2011, dated 2014).

In general, IC50 refers to the concentration that inhibits the measured activity by half.

One assay addresses T1, human cyp11B2 (Homo sapiens, UniProt P19099).
T1 construct: expressed in transfected cells
T1 sequence (P19099 25-503): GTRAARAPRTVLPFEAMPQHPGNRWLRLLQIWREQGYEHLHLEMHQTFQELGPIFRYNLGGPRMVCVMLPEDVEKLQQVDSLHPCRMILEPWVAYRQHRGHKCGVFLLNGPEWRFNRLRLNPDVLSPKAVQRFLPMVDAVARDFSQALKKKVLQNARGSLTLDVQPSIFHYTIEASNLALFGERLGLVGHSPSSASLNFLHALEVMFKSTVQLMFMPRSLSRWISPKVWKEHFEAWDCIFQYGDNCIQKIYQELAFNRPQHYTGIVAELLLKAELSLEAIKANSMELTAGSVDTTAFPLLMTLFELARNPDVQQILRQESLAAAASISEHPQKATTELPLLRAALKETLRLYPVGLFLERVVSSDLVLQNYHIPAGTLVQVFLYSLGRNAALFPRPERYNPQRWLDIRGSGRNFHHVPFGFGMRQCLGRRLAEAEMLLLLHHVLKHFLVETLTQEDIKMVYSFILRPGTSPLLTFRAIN
Briefly: Aldosterone Synthase Inhibitor Assay (V79-hcyp11B2 cells, aldosterone by LC-MS). Format: cell-based. The conditions noted are these: aldosterone production from 1 μM DOC, 24 hours incubation, geometric means, separate experiments. On the procedure: Chinese hamster fibroblast cells (V79, ATCC™) constitutively expressing human cyp11B2 are established by transfection with a mammalian expression vector harboring the human cyp11B2 cDNA under CMV promoter and a neomycin antibiotic resistant gene for selection in mammalian cells. V79 cells are transfected in T225 cm^2 flasks with the lipofectamine transfection reagent and the human cyp11B2 cDNA. Positive clones are selected with the selection antibiotic geneticin at 1 mg/mL.
Aldosterone production from transfected cells is initiated by the addition of 1 μM DOC in the medium. After 24 hours incubation, 100 μL cell culture medium is collected and aldosterone concentration in the medium is determined using a liquid chromatography-mass spectrometry (LC-MS) method. […] The wells are then extracted 3× with EtOAc (150 μl) using the FX, combining the organic layers in a new 96-well plate. The solvent is dried in a GeneVac HT-4 or under nitrogen. […] A 25 μl aliquot of the sample is injected and a gradient from 20-100% ACN+0.1% formic acid (FA) in 1 min is initiated. Aldosterone elutes at 0.7 min. Starting conditions are held for 1 minute to re-equilibrate the column. An ABI 4000 tandem mass spectrometer is used for MS/MS analysis in the negative ion mode. […] The area under the peak from each transition is added together to comprise the signal from aldosterone and IS, respectively. […] The detection limit for aldosterone is […].
DOC and various concentrations of test compounds in 1:3 dilution increments are added to the cell culture medium. After 24 hours incubation, 100 μl of cell medium are collected and aldosterone concentration determined as described above. Data are fit to a 4 parameter-fit logistics curve to determine IC50 values.

The subject of assay [1] is aldosterone production in rats. Briefly: Inhibition of Aldosterone Synthase in Rats (rat sodium-deficiency diet model). In kind it is in vivo. Conditions: Example 1 10.0 mg/kg, Example 49 30.0 mg/kg, Fadrozole 1.0 mg/kg. The procedure: The effect of compounds on aldosterone production in rats is assessed using the rat sodium-deficiency diet model. […] At 3 hours post dose rats are bled (˜0.5 mL) from the ocular orbit under isoflurane anesthesia. At 6 hours post-dose the rats are euthanized with CO2 and bled by cardiac puncture. Blood samples are clotted at least 30 minutes and serum is prepared and stored at approximately −80° C. until assayed. Aldosterone, steroids, and compound exposure are analyzed by mass spectroscopy.

Assay [2] has as its system estradiol production from H295R cells. Description: cells. Format: cell-based, human. The conditions noted are these: Homo sapiens, NCI-H295R, 48 h, read-out: Estradiol IC50 (μM). On the procedure:
(§1) The human adrenocarcinoma cell line H295R is used to monitor the production of testosterone and estradiol in vitro. […] Various concentrations of test compounds in 1:3 dilution increments are added to the cell culture medium. After incubation for 48 hours, 100 μl culture medium is collected and d5-estradiol and d3-testosterone are added as ISs for estradiol and testosterone respectively.
(§2) An equal volume of sodium carbonate/sodium bicarbonate buffer (0.5 mol/L, pH 9.4) is added to the samples followed by freshly prepared dansyl chloride solution (50 μl, 20 mg/mL). Samples are mixed and incubated for 60 min at 60° C. The samples are then extracted 3× with EtOAc ([…]) using the FX, combining the organic layers in a new deep-well 96-well plate. The solvent is then dried in a GeneVac HT-4 or under nitrogen. The FX is used to reconstitute the samples in 50% MeOH/water ([…]) and the plates are heat-sealed.
(§3) A 40 μl aliquot of the sample is injected and a gradient from 20-100% MeOH in 0.95 min is initiated. An ABI QTRAP 4000 tandem mass spectrometer is used for MS/MS analysis in the positive ion mode. […] These peaks are separately integrated to give the peak areas. The area ratios of testosterone/IS and estradiol/IS are used to determine testosterone and estradiol concentrations by comparison to their respective standard curves. The detection limits for testosterone and estradiol are 0.1 ng/mL and 0.01 ng/mL respectively.

The test system of assay [3] is testosterone production from H295R cells. Briefly: cells. Format: cell-based, human. Conditions: Homo sapiens, NCI-H295R, 48 h, read-out: Testosterone IC50 (μM). On the procedure:
as §1, §2, §3

`FC(F)(F)c1ccc(C2CCc3[nH]ncc32)cc1` (racemic) [Example 18, (+/−)-4-(4-Trifluoro-methylphenyl)-1,4,5,6-tetrahydrocyclopenta[c] pyrazole] yielded an IC50 against human cyp11B2 of 157 nM.
The same measure, in the same setting: with `N#Cc1ccc(C2CCCc3[nH]ncc32)cc1F` (racemic) [Example 59, (+/−)-2-Fluoro-4-(4,5,6,7-tetrahydro-1H-indazol-4-yl)benzonitrile] the figure was 5 nM.
The same measure, in the same setting: the figure for `Cc1ccc(C2CCCc3n[nH]cc32)cc1` (single isomer, unassigned; isomer 2) [Example 54, 4-(p-Tolyl)-4,5,6,7-tetrahydro-2H-indazole-isomer 2] is 154 nM.
Turning to `N#Cc1ccc(C2CCCc3cncn32)cc1` (stereo not drawn) [Fadrozole, fadrozole, reference compound], the “% Inhibition 3 hrs” value in assay [1] (inhibition of aldosterone vs vehicle, 3 hrs post oral dose) is 64.4%. In addition, the “% Inhibition 6 hrs” value in assay [1] (inhibition of aldosterone vs vehicle, 6 hrs post oral dose) is 55.2%. The “Aldosterone (pg/mL) 3 hrs” value in assay [1] (serum, 3 hrs post oral dose, rat Na-deficient diet model) came to 669.8 pg/mL. Further, the “Aldosterone (pg/mL) 6 hrs” value in assay [1] (serum, 6 hrs post oral dose, rat Na-deficient diet model) came out at 1144.2 pg/mL.
In the case of `N#Cc1ccc([C@H]2CCc3cncn32)c(F)c1` [Novartis LCI699, reference compound], the IC50 in assay [2] amounted to 0.123 µM; in assay [3], 5.01 µM.
